Source: PubChem BioAssay AID1919003 (Molecular Pharmacology Branch, DTP, NCI, 2023)
Values joined by “and” are separate entries in the source; they are usually repeats but may differ in a detail not shown here. Identical values can stand only once.

Tested on: 786-0 complex spheroids with HUVEC/MSC, growth % test/control
Experiment: Anticancer human tumor 786-0 cell line growth inhibition [AhR];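 also: compound exposure lasted seven days before the read-out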
Conditions: for viability, T/C: stronger effect = lower value
Excerpt: Multicellular complex tumor spheroid response to aryl hydrocarbon receptor antagonists in combination with a variety of drugs and investigational agents in selected tumor cell lines
The current study was undertaken to assess response to aryl hydrocarbon receptor antagonists in combination with standard-of-care drugs and investigational agents in solid tumor complex spheroid models. Complex spheroids include a stromal component modeled by human endothelial cells (HUVEC) and fibroblasts modeled by human mesenchymal stem cells (MSCs). The concentration ranges selected for each drug and investigational agent were based upon clinically achievable concentrations if the clinical Cmax of the agent was known.
Compounds. The drugs and investigational agents: BAY 2416964 (NSC825713), GNF351 (NSC835774), CH-223191 (NSC835775), CPI-455 (NSC825282), aza-TdCyd (NSC777586), decitabine (NSC127716), belinostat (NSC758774), entinostat (NSC756642), pevonedistat (NSC761192), tazemetostat (NSC777109), talazoparib (NSC765396), olaparib (NSC753686), selinexor (NSC780203), nedisertib (M3814, NSC802822), bortezomib (NSC756655), venetoclax (NSC766270), doxorubicin (NSC123127), elimusertib (BAY189344, NSC800525), ceralasertib (AZD6738, NSC777638), TAK-243 (NSC785004), alisertib (NSC759677), etoposide (NSC141540), topotecan (NSC609699), eribulin (NSC707389), gemcitabine (NSC613327), carboplatin (NSC241240), cisplatin (NSC119875), and SN-38 (NSC673596) were obtained from the National Cancer Institute (NCI) Developmental Therapeutics Program Chemical Repository (32). The FDA-approved anticancer drug set is available from the Developmental Therapeutics Program at https://dtp.cancer.gov/organization/dscb/obtaining/available plates.htm. […] The stock solutions were prepared in dimethyl sulfoxide (DMSO, Sigma-Aldrich, St. Louis, MO, cat. D2650), except for the platinum compounds which were prepared in saline (Quality Biological, Gaithersburg, MD, cat. 114-055-101), at 800-fold the tested concentration and stored at -70 degrees C prior to their use. All drugs and investigational agents were tested over a range starting from a high concentration at or near the clinical Cmax and decreasing in half-log increments. If the clinical Cmax for an agent had not been determined, the highest concentration tested was 10 microM (Table 1).
Cell Culture. All cells were maintained in an incubator at 37 degrees C and 5% CO2 with 95% humidity. The PDC lines were cultured according to standard operating procedures established by the NCI PDMR (https://pdmr.cancer.gov). Briefly, all PDCs were thawed and cultured in Matrigel-coated flasks prepared with a working solution of 1X Ham's F-12 nutrient mix, without supplementation (Invitrogen, Waltham, MA, cat. 11765054), 100 U/mL penicillin-streptomycin (Invitrogen, cat. 15140122), and 2.5% Matrigel (Corning Inc., Corning, NY, cat. 354248) for the first three passages. All PDCs were cultured in complete DMEM/F-12 media containing advanced DMEM/F-12 (Invitrogen, cat. 12634028), 4.9% defined fetal bovine serum, heat inactivated (HyClone Laboratories Inc., Logan, UT, cat. SH30070.03HI), 389 ng/mL hydrocortisone (Sigma-Aldrich, cat. H4001), 9.7 ng/mL human EGF recombinant protein (Invitrogen, cat. PHG0313), 23.4 microg/mL adenine (Sigma-Aldrich, cat. A2786), 97.3 U/mL penicillin-streptomycin (Invitrogen, cat. 15140122), 1.9 mM L-glutamine (Invitrogen, cat. 25030081), and 9.7 microM Y-27632 dihydrochloride (Tocris Bioscience, Bristol, United Kingdom, cat. 1254). The PDCs were cultured in complete DMEM/F12 media without 10 microM Y-27632 dihydrochloride for at least two passages prior to the screen. The established cell lines NCI-H1341 and […] were cultured in DMEM/F-12, HEPES (Invitrogen, cat. 11330032), 5% defined fetal bovine serum (HyClone Laboratories Inc., cat. SH30070.03), ITS premix universal culture supplement [insulin (5 microg/mL), transferrin (5 microg/mL), and selenious acid (5 ng/mL)] […]

[1] = curve of first compound, second compound 0.1 µM
[2] = curve of first compound, second compound 0.316 µM
[3] = curve of first compound, second compound 1 µM
[4] = curve of first compound, second compound 3.16 µM
[5] = curve of first compound, second compound 10 µM
[6] = second compound 0.1 µM, first compound 0.0316 µM
[7] = second compound 0.1 µM, first compound 0.1 µM
[8] = second compound 0.1 µM, first compound 0.316 µM
[9] = second compound 0.1 µM, first compound 1 µM
[10] = second compound 0.1 µM, first compound 3.16 µM
[11] = second compound 0.1 µM, first compound 10 µM
[12] = second compound 0.316 µM, first compound 0.0316 µM
[13] = second compound 0.316 µM, first compound 0.1 µM
[14] = second compound 0.316 µM, first compound 0.316 µM
[15] = second compound 0.316 µM, first compound 1 µM
[16] = second compound 0.316 µM, first compound 3.16 µM
[17] = second compound 0.316 µM, first compound 10 µM
[18] = second compound 1 µM, first compound 0.0316 µM
[19] = second compound 1 µM, first compound 0.1 µM
[20] = second compound 1 µM, first compound 0.316 µM
[21] = second compound 1 µM, first compound 1 µM
[22] = second compound 1 µM, first compound 3.16 µM
[23] = second compound 1 µM, first compound 10 µM
[24] = second compound 3.16 µM, first compound 0.0316 µM
[25] = second compound 3.16 µM, first compound 0.1 µM
[26] = second compound 3.16 µM, first compound 0.316 µM
[27] = second compound 3.16 µM, first compound 1 µM
[28] = second compound 3.16 µM, first compound 3.16 µM
[29] = second compound 3.16 µM, first compound 10 µM
[30] = second compound 10 µM, first compound 0.0316 µM
[31] = second compound 10 µM, first compound 0.1 µM
[32] = second compound 10 µM, first compound 0.316 µM
[33] = second compound 10 µM, first compound 1 µM
[34] = second compound 10 µM, first compound 3.16 µM
[35] = second compound 10 µM, first compound 10 µM

Question: Which results are given for `COc1cc(Nc2ncc3c(n2)-c2ccc(Cl)cc2C(c2c(F)cccc2OC)=NC3)ccc1C(=O)O` + CC(CO)NC(=O)c1cc(-c2ccc(Cl)cc2)nn(-c2cnn(C)c2)c1=O?
Answer: IC50 [1]: 2790 nM; IC50 [2]: 2600 nM; IC50 [3]: 2550 nM; IC50 [4]: 2540 nM; IC50 [5]: 2820 nM; viability, T/C [6]: 101%; viability, T/C [7]: 96.8%; viability, T/C [8]: 99.9%; viability, T/C [9]: 82%; viability, T/C [10]: 46.4%; viability, T/C [11]: 23.9%; viability, T/C [12]: 106%; viability, T/C [13]: 100%; viability, T/C [14]: 107%; viability, T/C [15]: 84.7%; viability, T/C [16]: 43.2%; viability, T/C [17]: 19.8%; viability, T/C [18]: 96.8%; viability, T/C [19]: 103%; viability, T/C [20]: 108%; viability, T/C [21]: 80.2%; viability, T/C [22]: 44%; viability, T/C [23]: 20.3%; viability, T/C [24]: 107%; viability, T/C [25]: 93.2%; viability, T/C [26]: 104%; viability, T/C [27]: 87.9%; viability, T/C [28]: 41.1%; viability, T/C [29]: 19.9%; viability, T/C [30]: 92.3%; viability, T/C [31]: 86.7%; viability, T/C [32]: 101%; viability, T/C [33]: 85%; viability, T/C [34]: 46.2%; viability, T/C [35]: 19.5%

Question: Which IC50 [1] does the source give for `O=C(c1cc(Cc2n[nH]c(=O)c3ccccc23)ccc1F)N1CCN(C(=O)C2CC2)CC1` + Cc1ccccc1N=Nc1ccc(NC(=O)c2ccnn2C)c(C)c1 here?
Answer: > 10000 nM

Question: And the IC50 [2]?
Answer: > 10000 nM

Question: And the IC50 [3]?
Answer: > 10000 nM

Question: And the IC50 [4]?
Answer: > 10000 nM

Question: What about the IC50 [5] of the same molecule?
Answer: > 10000 nM

Question: And the viability, T/C [6]?
Answer: 101%

Question: What about the viability, T/C [7] of the same molecule?
Answer: 105%

Question: What about the viability, T/C [8] of the same molecule?
Answer: 99.8%

Question: What about the viability, T/C [9] of the same molecule?
Answer: 104%

Question: And the viability, T/C [10]?
Answer: 97%

Question: And the viability, T/C [11]?
Answer: 104%

Question: What about the viability, T/C [12] of the same molecule?
Answer: 97.1%

Question: And the viability, T/C [13]?
Answer: 101%

Question: And the viability, T/C [14]?
Answer: 107%

Question: And the viability, T/C [15]?
Answer: 106%

Question: And the viability, T/C [16]?
Answer: 107%

Question: And the viability, T/C [17]?
Answer: 101%

Question: And the viability, T/C [18]?
Answer: 100%

Question: And the viability, T/C [19]?
Answer: 101%

Question: What about the viability, T/C [20] of the same molecule?
Answer: 104%

Question: And the viability, T/C [21]?
Answer: 97.1%

Question: And the viability, T/C [22]?
Answer: 107%

Question: And the viability, T/C [23]?
Answer: 99.1%

Question: What about the viability, T/C [24] of the same molecule?
Answer: 94.6%

Question: And the viability, T/C [25]?
Answer: 97.9%

Question: What about the viability, T/C [26] of the same molecule?
Answer: 99.5%

Question: And the viability, T/C [27]?
Answer: 97.3%

Question: What about the viability, T/C [28] of the same molecule?
Answer: 106%

Question: What about the viability, T/C [29] of the same molecule?
Answer: 94.4%

Question: What about the viability, T/C [30] of the same molecule?
Answer: 98.2%

Question: What about the viability, T/C [31] of the same molecule?
Answer: 93.8%

Question: And the viability, T/C [32]?
Answer: 102%

Question: What about the viability, T/C [33] of the same molecule?
Answer: 94.9%

Question: What about the viability, T/C [34] of the same molecule?
Answer: 88.1%

Question: What about the viability, T/C [35] of the same molecule?
Answer: 87.5%

Question: What does the source list for `Nc1ccn(C2OC(CO)C(O)C2(F)F)c(=O)n1` (configuration not stated)?
Answer: viability, T/C (compound 0.0316 µM): 5.98% and 8.17% and 4.44%; viability, T/C (compound 0.1 µM): 6.03% and 7.13% and 4.49%; viability, T/C (compound 0.316 µM): 4.27% and 6.35% and 5.28%; viability, T/C (compound 1 µM): 4.72% and 8.77% and 4.12%; viability, T/C (compound 3.16 µM): 4.82% and 7.86% and 5.09%; viability, T/C (compound 10 µM): 5.31% and 7.65% and 6.29%; IC50 (curve of compound): < 31.6 nM
